According to ChEMBL document CHEMBL4402583, “Rational Substitution of ε-Lysine for α-Lysine Enhances the Cell and Membrane Selectivity of Pore-Forming Melittin” (J Med Chem, 2020):
Converted amounts (≈) assume the structure as drawn. The source made the active and inactive calls. No cut-off for these calls is given here.

What was measured:
[1] = tested on: Staphylococcus aureus; test: In vivo antibacterial activity against Staphylococcus aureus ATCC 29213 infected in C57BL/6 mouse assessed as reduction in bacterial burden by measuring log10 CFU/cornea at 0.3% administered topically as two times on day 1, four times on day 2 and two times on day 3 measured at 48 hrs post-final dose by 10 fold serial dilution method (reference value: 6.5 +/- 0.7 log10CFU); type: functional
[2] = tested on: Acinetobacter baumannii; test: Antibacterial activity against multidrug-resistant Acinetobacter baumannii assessed as reduction in bacterial growth incubated for 24 hrs by broth microdilution method; type: functional
[3] = tested on: Enterococcus; test: Antibacterial activity against vancomycin-resistant Enterococcus assessed as reduction in bacterial growth incubated for 24 hrs by broth microdilution method; type: functional
[4] = Cytotoxicity against HDF cells assessed as cell viability at 500 ug/ml incubated for 24 hrs by MTS assay relative to control; type: cell-based; conditions: human, HDF cells (NHDF, human dermal fibroblasts); read-out: Activity
[5] = tested on: NHDF; test: Cytotoxicity against HDF cells assessed as truncation and reduction in cytoskeleton at 500 ug/ml incubated for 24 hrs by Alexa Fluor […] phalloidin-FITC/Hoescht dye staining based fluorescence microscopic analysis; type: cell-based; conditions: human
[6] = tested on: Staphylococcus aureus; test: Antibacterial activity against methicillin-sensitive Staphylococcus aureus assessed as reduction in bacterial growth incubated for 24 hrs by broth microdilution method; type: functional
[7] = tested on: Pseudomonas aeruginosa; test: Antibacterial activity against Pseudomonas aeruginosa assessed as reduction in bacterial growth incubated for 24 hrs by broth microdilution method; type: functional
[8] = tested on: Staphylococcus aureus; test: Antibacterial activity against methicillin-resistance Staphylococcus aureus assessed as reduction in bacterial growth incubated for 24 hrs by broth microdilution method; type: functional
[9] = tested on: Enterobacteriaceae; test: Antibacterial activity against Carbapenem-Resistant Enterobacteriaceae assessed as reduction in bacterial growth incubated for 24 hrs by broth microdilution method; type: functional
[10] = tested on: Candida albicans; test: Antifungal activity against Candida albicans assessed as reduction in fungal growth incubated for 24 hrs by broth microdilution method; type: functional
[11] = tested on: Lipid bilayer; test: Induction of pore formation in negatively charged DOPE/DOPG large unilamellar vesicles assessed as ratio of peptide to lipid molar ratio that induces 50% calcein leakage measured for 60 mins by calcein dequenching based fluorescence based assay
[12] = tested on: Acinetobacter baumannii; test: Antibacterial activity against Acinetobacter baumannii 1001 assessed as reduction in bacterial viability at 2 or 4 times MIC incubated up to 24 hrs in MHB medium followed by reincubation on MH agar plate for 24 to 48 hrs by time kill kinetics assay; type: functional, organism-based
[13] = tested on: NHDF; test: Cytotoxicity against HDF cells assessed as reduction in metabolic activity at 16 ug/ml incubated for 24 hrs by MTS assay; type: ADME, cell-based; conditions: human
[14] = tested on: Enterococcus faecalis; test: Antibacterial activity against vancomycin-resistant Enterococcus faecalis ATCC 29212 assessed as log10 reduction in bacterial viability at 2 to 4 times MIC incubated for 30 mins in MHB medium followed by reincubation on MH agar plate for 24 to 48 hrs by time kill kinetics analysis; type: functional
[15] = tested on: Lipid bilayer; test: Binding affinity to zwitterionic DOPC/cholesterol large unilamellar vesicles assessed as transformation of peptide secondary structure to alpha-helical conformation by CD spectropolarimetry
[16] = Cytotoxicity against HDF cells assessed as minimum cytotoxic concentration incubated for 24 hrs by Alexa Fluor […] phalloidin-FITC/Hoescht dye staining based fluorescence microscopic analysis; type: cell-based; conditions: human, HDF cells (NHDF, human dermal fibroblasts)
[17] = Stability of the compound in rabbit tear fluids assessed as parent compound remaining measured after 4 hrs by UPLC-MS analysis; type: ADME, Oryctolagus cuniculus; conditions: tear fluid, read-out: Stability
[18] = tested on: Klebsiella pneumoniae; test: Antibacterial activity against Klebsiella pneumoniae 1008 assessed as reduction in bacterial viability at 2 or 4 times MIC incubated up to 24 hrs in MHB medium followed by reincubation on MH agar plate for 24 to 48 hrs by time kill kinetics assay; type: functional, organism-based
[19] = tested on: Enterococcus faecalis; test: Induction of pore formation in intact vancomycin-resistant Enterococcus faecalis 1002 cell membrane assessed as SG uptake at 2 times MIC by SG dye based fluorescence based assay; type: organism-based
[20] = tested on: Enterococcus faecalis; test: Induction of pore formation in intact vancomycin-resistant Enterococcus faecalis ATCC 29212 cell membrane assessed as SG uptake at 2 times MIC by SG dye based fluorescence based assay; type: organism-based
[21] = tested on: Lipid bilayer; test: Induction of pore formation in zwitterionic DOPC/cholesterol large unilamellar vesicles assessed as calcein release at 0.39 to 50 uM measured for 60 mins by fluorescence based assay
[22] = tested on: Escherichia coli; test: Induction of pore formation in intact Escherichia coli 1004 cell membrane assessed as SG uptake at 2 times MIC by SG dye based fluorescence based assay; type: organism-based
[23] = tested on: Escherichia coli; test: Antibacterial activity against Escherichia coli 1004 assessed as reduction in bacterial viability at 2 or 4 times MIC incubated up to 24 hrs in MHB medium followed by reincubation on MH agar plate for 24 to 48 hrs by time kill kinetics assay; type: functional, organism-based
[24] = Stability of the compound in rabbit tear fluid measured after 2 hrs by UPLC-MS analysis; type: ADME, Oryctolagus cuniculus
[25] = tested on: Enterococcus faecalis; test: Antibacterial activity against vancomycin-resistant Enterococcus faecalis 1002 assessed as log10 reduction in bacterial viability at 2 to 4 times MIC incubated for 30 mins in MHB medium followed by reincubation on MH agar plate for 24 to 48 hrs by time kill kinetics analysis; type: functional
[26] = tested on: Enterococcus faecalis; test: Antibacterial activity against vancomycin-resistant Enterococcus faecalis 1010 assessed as log10 reduction in bacterial viability at 2 to 4 times MIC incubated for 30 mins in MHB medium followed by reincubation on MH agar plate for 24 to 48 hrs by time kill kinetics analysis; type: functional
[27] = tested on: Lipid bilayer; test: Induction of pore formation in negatively charged DOPE/DOPG large unilamellar vesicles assessed as calcein release at 0.39 to 50 uM measured for 60 mins by fluorescence based assay
[28] = Cytotoxicity against HDF cells assessed as minimum cytotoxic concentration incubated for 24 hrs by MTS assay; type: cell-based; conditions: human, HDF cells (NHDF, human dermal fibroblasts)
[29] = tested on: Acinetobacter baumannii; test: Induction of pore formation in intact Acinetobacter baumannii 1001 cell membrane assessed as SG uptake at 2 times MIC by SG dye based fluorescence based assay; type: organism-based

COc1c(N2C[C@@H]3CCCN[C@@H]3C2)c(F)cc2c(=O)c(C(=O)O)cn(C3CC3)c12 [MOXIFLOXACIN]
Activity [1]: 3.7 log10CFU

CC[C@H](C)[C@H](NC(=O)CN)C(=O)NCC(=O)N[C@@H](C)C(=O)N[C@H](C(=O)N[C@@H](CC(C)C)C(=O)NCCC[C@@H](CN)C(=O)N[C@H](C(=O)N[C@@H](CC(C)C)C(=O)N[C@H](C(=O)N[C@H](C(=O)NCC(=O)N[C@@H](CC(C)C)C(=O)N1CCC[C@H]1C(=O)N[C@@H](C)C(=O)N[C@@H](CC(C)C)C(=O)N[C@H](C(=O)N[C@@H](CO)C(=O)N[C@@H](Cc1c[nH]c2ccccc12)C(=O)N[C@H](C(=O)NCCC[C@@H](CN)C(=O)N[C@@H](CCCNC(=N)N)C(=O)NCCC[C@@H](CN)C(=O)N[C@@H](CCCNC(=N)N)C(=O)N[C@@H](CCC(N)=O)C(=O)N[C@@H](CCC(N)=O)C(N)=O)[C@@H](C)CC)[C@@H](C)CC)[C@@H](C)O)[C@@H](C)O)C(C)C)C(C)C
MIC [2]: 4 to 8 µg/mL (≈ 1.41 to 2.81 µM)
MIC50 [2]: 8 µg/mL (≈ 2.81 µM)
MIC [3]: 4 to 16 µg/mL (≈ 1.41 to 5.62 µM)
MIC50 [3]: 8 µg/mL (≈ 2.81 µM)
viability at 24 h, 500 ug/ml [4]: 102%
Activity [5]: Toxic
MIC [6]: 16 to 128 µg/mL (≈ 5.62 to 45 µM)
MIC50 [6]: 64 µg/mL (≈ 22.5 µM)
MIC [7]: 16 to 64 µg/mL (≈ 5.62 to 22.5 µM)
MIC50 [7]: 32 µg/mL (≈ 11.2 µM)
MIC50 [8]: 64 µg/mL (≈ 22.5 µM)
MIC [9]: 4 to 64 µg/mL (≈ 1.41 to 22.5 µM)
MIC50 [9]: 8 µg/mL (≈ 2.81 µM)
MIC [10]: 4 to 8 µg/mL (≈ 1.41 to 2.81 µM)
MIC50 [10]: 4 µg/mL (≈ 1.41 µM)

CC[C@H](C)[C@H](NC(=O)CN)C(=O)NCC(=O)N[C@@H](C)C(=O)N[C@H](C(=O)N[C@@H](CC(C)C)C(=O)N[C@@H](CCCCN)C(=O)N[C@H](C(=O)N[C@@H](CC(C)C)C(=O)N[C@H](C(=O)N[C@H](C(=O)NCC(=O)N[C@@H](CC(C)C)C(=O)N1CCC[C@H]1C(=O)N[C@@H](C)C(=O)N[C@@H](CC(C)C)C(=O)N[C@H](C(=O)N[C@@H](CO)C(=O)N[C@@H](Cc1c[nH]c2ccccc12)C(=O)N[C@H](C(=O)N[C@@H](CCCCN)C(=O)N[C@@H](CCCNC(=N)N)C(=O)N[C@@H](CCCCN)C(=O)N[C@@H](CCCNC(=N)N)C(=O)N[C@@H](CCC(N)=O)C(=O)N[C@@H](CCC(N)=O)C(N)=O)[C@@H](C)CC)[C@@H](C)CC)[C@@H](C)O)[C@@H](C)O)C(C)C)C(C)C [MELITTIN]
MIC [2]: 2 to 4 µg/mL (≈ 0.703 to 1.41 µM)
MIC50 [2]: 4 µg/mL (≈ 1.41 µM)
Ratio [11]: 0.04
MIC [3]: 0.5 to 8 µg/mL (≈ 0.176 to 2.81 µM)
MIC50 [3]: 4 µg/mL (≈ 1.41 µM)
Activity [12]: Active
Activity [13]: Toxic
log(activity) [14]: >5
Activity [15]: Active
MCC at 24 h [16]: > 8 µg/mL
remaining at 4 h [17]: 85.3%
Activity [18]: Active
Activity [19]: Active
Activity [20]: Active
Activity [21]: Active
Activity [22]: Active
MIC50 [6]: 4 µg/mL (≈ 1.41 µM)
Activity [23]: Active
Stability [24]: Stable
log(activity) [25]: >5
log(activity) [26]: >5
MIC50 [7]: 16 µg/mL (≈ 5.62 µM)
Activity [27]: Active
MCC at 24 h [28]: > 8 µg/mL
Activity [29]: Active
MIC50 [8]: 4 µg/mL (≈ 1.41 µM)
MIC [9]: 8 to 32 µg/mL (≈ 2.81 to 11.2 µM)
MIC50 [9]: 8 µg/mL (≈ 2.81 µM)
MIC [10]: 4 to 8 µg/mL (≈ 1.41 to 2.81 µM)
MIC50 [10]: 4 µg/mL (≈ 1.41 µM)
